Like-named read-outs stand apart in the source and are kept apart here.
Tests used:
P-388 leukemia cells = assay: Antitumor activity against P-388 leukemia cells (i.p. implanted, i.v. drug); type: in vivo, BDF1 mice; details: Mus musculus, P388, iv, 720 h, read-out: T/C of MST; for response vs control in vivo at 20 mg/kg/day: dose b': 20 mg/kg/d × 2 (days 1, 5); for response vs control in vivo at 40 mg/kg/day: dose c': 40 mg/kg/d × 2 (days 1, 5); for response vs control in vivo at 80 mg/kg: dose f: 80 mg/kg/d × 3 (days 1, 5, 9)
Procedure: BDF1 mice were implanted intraperitoneally with P-388 leukemia cells at a rate of 1×10^6 cells/mouse, and each drug to be tested was administered intravenously on the first, fifth and ninth days, or on the first and fifth days after the implantation. […] The T/C (%) was calculated based on the following equation: [formula]
The drugs tested were as follows: solutions prepared by dissolving each of compound Nos. 34, 36 and 43 to 46 in physiological saline; suspension or solutions prepared by dissolving each of compound Nos. 35, 38 and 49 to 55 in dimethylacetamide, followed by adding thereto a small amount of a surface active agent (e.g., Tween-80) and then physiological saline; and suspension or solutions prepared by mixing each of the other compounds and a small amount of a surface active agent (e.g., Tween-80), followed by adding thereto physiological saline.

[1] = Acute toxicity (LD50, single intravenous administration); design: species or system day mice; details: mouse, in vivo, mice, single i.v.
From the text: In Table 15 are shown acute toxicity values (LD50, mg/kg) in day mice in the case of intravenously administering (once) each of the compounds of this invention in the form of preparations shown in the Preparation Examples shown in Table 16.

[2] = i.v., dose b: 20 mg/kg/d × 3 (days 1, 5, 9), 30-day observation
[3] = i.v., dose c: 40 mg/kg/d × 3 (days 1, 5, 9), 30-day observation

| SMILES | response vs control in vivo at 20 mg/kg (P-388 leukemia cells; [2]) [%] | response vs control in vivo at 40 mg/kg (P-388 leukemia cells; [3]) [%] | LD50 ([1]; Preparation Example 2) [mg/kg] | other results |
| --- | --- | --- | --- | --- |
| COc1ccc2[nH]c(C(=O)Oc3c4cccc(OC5OC(C)C6OC(c7ccccc7)OC6C5OC5OC(C)C(O)C(OC)C5O)c4c4oc(=O)c5c(C)ccc6oc(=O)c3c4c65)cc2c1 (stereo not drawn) [Compound 19, 6-O-{2-(5-methoxyindolyl)-carbonyl}-3',4'-O-benzylidene-chartreusin] | 131 | 165 | ≥ 40 |  |
| COC1C(O)C(C)OC(OC2C(Oc3cccc4c(OC(=O)Cc5c[nH]c6ccccc56)c5c(=O)oc6ccc(C)c7c(=O)oc(c34)c5c67)OC(C)C3OC(c4ccccc4)OC32)C1O (stereo not drawn) [Compound 20] | 148 | 286 | ≥ 40 |  |
| COC1C(O)C(C)OC(OC2C(Oc3cccc4c(OC(=O)C=Cc5ccc6c(c5)OCO6)c5c(=O)oc6ccc(C)c7c(=O)oc(c34)c5c67)OC(C)C3OC(c4ccccc4)OC32)C1O (stereo not drawn) [Compound 21] | 131 | 176 | ≥ 40 |  |
| COC1C(O)C(C)OC(OC2C(Oc3cccc4c(OC(=O)CCc5ccc6c(c5)OCO6)c5c(=O)oc6ccc(C)c7c(=O)oc(c34)c5c67)OC(C)C3OC(c4ccccc4)OC32)C1O (stereo not drawn) [Compound 22] | 142 | 222 | ≥ 40 |  |
| COC1C(O)C(C)OC(OC2C(Oc3cccc4c(OC(=O)C5CCN(C(=O)C(F)(F)F)CC5)c5c(=O)oc6ccc(C)c7c(=O)oc(c34)c5c67)OC(C)C3OC(C)(C)OC32)C1O (stereo not drawn) [Compound 23] |  | 127 |  | LD50 ([1]; Preparation Example 3): ≥ 40 mg/kg |
| COC1C(O)C(C)OC(OC2C(Oc3cccc4c(OC(=O)C5CCCN(C)C5)c5c(=O)oc6ccc(C)c7c(=O)oc(c34)c5c67)OC(C)C3OC(c4ccccc4)OC32)C1O (stereo not drawn) [Compound 24] |  |  | ≥ 40 | response vs control in vivo at 20 mg/kg/day (P-388 leukemia cells; i.v., 30-day observation): 152%; response vs control in vivo at 40 mg/kg/day (P-388 leukemia cells; i.v., 30-day observation): 186% |
| COC1C(O)C(C)OC(OC2C(Oc3cccc4c(OC(=O)C5CC(OC(C)=O)CC(C)(C)O5)c5c(=O)oc6ccc(C)c7c(=O)oc(c34)c5c67)OC(C)C3OC(c4ccccc4)OC32)C1O (stereo not drawn) [Compound 26] |  |  | ≥ 20 |  |
| COC1C(O)C(C)OC(OC2C(Oc3cccc4c(OC(=O)c5ccc6ccccc6n5)c5c(=O)oc6ccc(C)c7c(=O)oc(c34)c5c67)OC(C)C3OC(C)(C)OC32)C1O (stereo not drawn) [Compound 27] |  | 142 |  | LD50 ([1]; Preparation Example 5): ≥ 80 mg/kg |
| COC1C(O)C(C)OC(OC2C(Oc3cccc4c(OC(=O)c5cc(-c6ccccc6)nc6ccccc56)c5c(=O)oc6ccc(C)c7c(=O)oc(c34)c5c67)OC(C)C3OC(c4ccccc4)OC32)C1O (stereo not drawn) [Compound 28] | 197 |  |  | response vs control in vivo at 80 mg/kg (P-388 leukemia cells; i.v., 30-day observation): 192%; LD50 ([1]; Preparation Example 1): ≥ 20 mg/kg |
| COC1C(O)C(C)OC(OC2C(Oc3cccc4c(OC(=O)Cc5ccc6c(c5)OCO6)c5c(=O)oc6ccc(C)c7c(=O)oc(c34)c5c67)OC(C)C3OC(c4ccccc4)OC32)C1O (stereo not drawn) [Compound 29] |  |  | ≥ 40 | response vs control in vivo at 20 mg/kg (P-388 leukemia cells): 201%; response vs control in vivo at 40 mg/kg (P-388 leukemia cells): 255% |
| COC1C(O)C(C)OC(OC2C(Oc3cccc4c(OC(=O)c5cc6ccccc6[nH]5)c5c(=O)oc6ccc(C)c7c(=O)oc(c34)c5c67)OC(C)C3OC(c4cccc(F)c4)OC32)C1O (stereo not drawn) [Compound 30, 6-O-(2-indolyl-carbonyl)-3',4'-O-(m-fluorobenzylidene)-chartreusin] |  |  | ≥ 80 | response vs control in vivo at 80 mg/kg (P-388 leukemia cells; i.v., 30-day observation): 142% |
| COC1C(O)C(C)OC(OC2C(Oc3cccc4c(OC(=O)c5ccc[nH]5)c5c(=O)oc6ccc(C)c7c(=O)oc(c34)c5c67)OC(C)C3OC(c4cccc(Br)c4)OC32)C1O (stereo not drawn) [Compound 31] |  | 128 |  | LD50 ([1]; Preparation Example 1): ≥ 40 mg/kg |
| COC1C(O)C(C)OC(OC2C(Oc3cccc4c(OC(=O)C5CC(=O)CC(C)(C)O5)c5c(=O)oc6ccc(C)c7c(=O)oc(c34)c5c67)OC(C)C3OC(c4ccccc4)OC32)C1O (stereo not drawn) [Compound 32] |  |  | ≥ 40 | response vs control in vivo at 20 mg/kg/day (P-388 leukemia cells; i.v., 30-day observation): 185%; response vs control in vivo at 40 mg/kg/day (P-388 leukemia cells; i.v., 30-day observation): 213% |

— patent publication US4927919A, “Chartreusin derivatives and salts thereof” (Ishihara Sangyo Kaisha, Ltd., priority 1985, dated 1990)
